Measured values from US11970731B2, “Enhancement of nucleic acid polymerization by aromatic compounds” (priority 2018, dated 2024).

Assays:
[1] = target: T1, C4552 (variant of DPO4 DNA polymerase) (Saccharolobus solfataricus, UniProt Q97W02, A155G/A42V/D156R/D292Y/D294N/E291S/E324K/E325K/E327K/E79L/G187P/G299W/I153V/I189F/I248T/I295S/K152A/K317Q/K321Q/K56Y/K78D/L293W/M76W/N188Y/P184Q/Q82W/Q83G/R300S/S297Y/S86E/T290K/T301W/V289W/V296Q); assay: XNTP polymerization reactions on longer templates (88, 127, 227, 277 nucleotides); format: biochemical, Sulfolobus solfataricus; settings: 1 mM compound; templates of 88, 127, 227 and 277 nucleotides; 3 or 4 nmol PP-60.20; 1-2 hr at 23° C.; FIG. 8
T1 construct: made in house
Description: Following the success of accurately replicating templates of up to 80 nucleotides in length into Xpandomers, XNTP polymerization reactions were conducted using four longer templates, consisting of 88, 127, 227, and 277 nucleotides in length. A variant of DPO4 DNA polymerase, referred to as C4552 (SEQ ID NO:1), was used in these polymerization reactions and reaction conditions were optimized for C4552 activity in the presence of PEM compound 1. Other suitable DPO4 polymerase variants include, but are not limited to, those of SEQ ID NO:2, SEQ ID NO:3, SEQ ID NO:4, and SEQ ID NO:5. In addition to 1 mM compound 1, reaction additives included 1 mM urea and 2.75 μg single-strand binding protein (Eco SSB). Extension reactions were carried out with 0.85 pmol template, 0.5 pmol oligonucleotide primer, and 1 nmol each XNTP in a final volume of 10 μL. Reactions were run in buffer composed of 50 mM TrisCl, pH 8.84, 200 mM NH4OAc, and 20% PEG8K supplemented with 5% NMS, polyphosphate PP-60.20 in amounts of 3 or 4 nmol, and 2 mM MnCl2. 1.2 μg purified recombinant DNA polymerase protein was used in each extension reaction and reactions were run for 1-2 hr at 23° C. […] Lanes 1-5 and 6-10 represent identical extension reactions with the exception of the amount of PP-60.20 additive, which was 3 nmol in lanes 1-5 and 4 nmol in lanes 6-10.

C4552 DNA polymerase = target: T2, C4552 DNA polymerase (Saccharolobus solfataricus, UniProt Q97W02, A155G/A42V/D156R/D292Y/D294N/E291S/E324K/E325K/E327K/E79L/G187P/G299W/I153V/I189F/I248T/I295S/K152A/K317Q/K321Q/K56Y/K78D/L293W/M76W/N188Y/P184Q/Q82W/Q83G/R300S/S297Y/S86E/T290K/T301W/V289W/V296Q); assay: Primer extension assays using three 100mer templates derived from HIV1, 2 and 3 genomes; format: biochemical, Sulfolobus solfataricus; settings: 0.5 mM PEM; HIV1, HIV2, HIV3 100mer templates; 30 minutes at 23° C.; FIG. 9
T2 construct: made in house
Description: PEM activity of compounds 9-11 was tested in primer extension assays using three 100mer templates, derived from the HIV1, 2, and 3 genomes. Primer extension reactions included the following reagents: 75 mM TrisCl, pH 8.44, 175 mM NH4OAc, 20% PEG8K, 5% NMS, 0.8 nmol PP-60.20, 0.6 mM MnCl2, 2.3 μg Tth single-strand binding protein (SSB), 0.5 M or 1 M urea, 200 pmol each XNTP, 1.1 pmol template, 1 pmol oligonucleotide primer, 1.2 μg purified recombinant C4552 DNA polymerase, and 0.5 mM PEM. 10 μL primer extension reactions were run for 30 minutes at 23° C. and reaction products were analyzed by gel electrophoresis.

DNA polymerase [2] = assay: Screen of PEMs for enhancement of XNTP polymerization (primer extension, gel electrophoresis); format: biochemical; settings: FIG. 4 gel; 45 mer template; without PEM additive up to only around 14 XNTPs
Description: A representative primer extension reaction may include the following reagents: 2 pmol primer, 2.2 pmol 45 mer oligonucleotide template, 50 pmol of each XNTP (XATP, XCTP, XGTP, and XTTP), 50 mM Tris HCl, pH 6.79, 200 mM NaCl, 20% PEG, 5% NMS, 0.5 nmol polyphosphate 60.19, 0.3 mM MnCl2, and 0.6 μg of purified recombinant DNA polymerase protein. Reactions may be run for 1 hr at 23° C. Reaction products (i.e., constrained Xpandomers) are treated to cleave the phosphoramidate bonds, thereby generating linearized Xpandomers. Reaction products may be analyzed using gel electrophoresis on 4-12% acrylamide gels to resolve and visualize Xpandomer products of different lengths. For the PEM screen described above, PEMs were typically tested in the micro to millimolar range.
Again, this PEM activity is specific for compound 2, as other unrelated aromatic compounds had no effect (lanes 2-7).

DNA polymerase [3] = assay: Sequencing by Expansion (SBX) of primer extension products, nanopore sequence reads aligned to template; format: biochemical
Description: To investigate the accuracy of PEM-dependent enhancement of XNTP polymerization, primer extension products were sequenced using the SBX protocol. Briefly, the constrained Xpandomer products of XNTP polymerization are cleaved to generate linearized Xpandomers. This is accomplished by first quenching the extension reaction with a solution containing 100 mM EDTA, 2 mM THPTA, and 2% Tween-20. Then the sample is subjected to amine modification with a solution of 1 M NaHCO3 and 1 M succinic anhydride in DMF. Cleavage of the phosphoramidate bonds is carried out with 37% HCl and linearized Xpandomers are purified with QIAquick columns (QIAGEN, Inc.).
For sequencing, protein nanopores are prepared by inserting α-hemolysin into a DPhPE/hexadecane bilayer member in buffer B1, containing 2 M NH4Cl and 100 mM HEPES, pH 7.4. The cis well is perfused with buffer B2, containing 0.4 M NH4Cl, 0.6 M GuCl, and 100 mM HEPES, pH 7.4. The Xpandomer sample is heated to 70° C. for 2 minutes, cooled completely, then a 2 μL sample is added to the cis well. A voltage pulse of 90 mV/390 mV/10 μs is then applied and data is acquired via Labview acquisition software.
Sequence data is analyzed by histogram display of the population of sequence reads from a single SBX reaction. […] Representative histograms of SBX sequencing of a 45mer template are presented in FIG. 6A (no additive control) and FIG. 6B (SBX in the presence of PEM compound 1).

[4] = target: T3, C4760 DNA polymerase (a variant of DPO4) (Saccharolobus solfataricus, UniProt Q97W02, A155G/A42V/D156R/D292Y/D294N/E291S/E324K/E325K/E327K/E63R/E79L/G187P/G299W/I153V/I189F/I248T/I295S/K152A/K317Q/K321Q/K56Y/K78D/L293W/M76W/N188Y/P184Q/Q82W/Q83G/R300S/S297Y/S86E/T290K/T301W/V289W/V296Q); assay: Primer extension assays using a 411mer amplicon template; format: biochemical, Sulfolobus solfataricus; settings: comparator compound 14 (lane 1)
T3 construct: made in house
Description: PEM activity of compound 15 was tested in primer extension assays using a 411mer amplicon template. Primer extension reactions included the following reagents: 50 mM TrisCl, 200 mM NH4OAc, 20% PEG8K, 5% NMS, 3 nmol PP-60.20, 2 mM MnCl2, 2 μg Kod single-strand binding protein (SSB), 1 M urea, 250 pmol each XNTP, 1 pmol template, 1 pmol oligonucleotide primer, 1.2 μg purified recombinant C4760 DNA polymerase (a variant of DPO4, see SEQ ID NO:2), and 2 (lane 2) or 3 (lane 3) mM PEM. 10 μL primer extension reactions were run for 20 minutes at 37° C. and reaction products were analyzed by gel electrophoresis. A representative gel showing primer extension products is presented in FIG. 12 (the position of a 277mer is indicated by the arrow). […] Remarkably, the polymerase is completely dependent upon the addition of PEM to the reaction in order to be capable of synthesizing these lengthy Xpandomer products. Even longer extension products may be obtained by optimizing various reaction parameters, e.g., extension time and/or concentrations of various additives.
PEM activity of compound 19, was tested in primer extension assays using the 411 mer amplicon template. […] 10 μL primer extension reactions were run for 30 minutes at 37° C. and reaction products were analyzed by gel electrophoresis. […]

T3 sequence (Q97W02 other isoform, or with tags, fused parts or gaps with the stated changes): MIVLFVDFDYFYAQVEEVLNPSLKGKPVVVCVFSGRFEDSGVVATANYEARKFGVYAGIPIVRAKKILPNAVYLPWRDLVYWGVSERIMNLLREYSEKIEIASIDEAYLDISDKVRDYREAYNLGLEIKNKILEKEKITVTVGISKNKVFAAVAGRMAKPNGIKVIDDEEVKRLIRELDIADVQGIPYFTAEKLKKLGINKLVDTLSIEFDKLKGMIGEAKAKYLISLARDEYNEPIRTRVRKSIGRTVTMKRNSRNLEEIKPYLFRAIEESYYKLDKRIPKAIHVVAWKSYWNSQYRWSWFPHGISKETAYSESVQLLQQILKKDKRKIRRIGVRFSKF
T1 sequence (Q97W02 other isoform, or with tags, fused parts or gaps with the stated changes): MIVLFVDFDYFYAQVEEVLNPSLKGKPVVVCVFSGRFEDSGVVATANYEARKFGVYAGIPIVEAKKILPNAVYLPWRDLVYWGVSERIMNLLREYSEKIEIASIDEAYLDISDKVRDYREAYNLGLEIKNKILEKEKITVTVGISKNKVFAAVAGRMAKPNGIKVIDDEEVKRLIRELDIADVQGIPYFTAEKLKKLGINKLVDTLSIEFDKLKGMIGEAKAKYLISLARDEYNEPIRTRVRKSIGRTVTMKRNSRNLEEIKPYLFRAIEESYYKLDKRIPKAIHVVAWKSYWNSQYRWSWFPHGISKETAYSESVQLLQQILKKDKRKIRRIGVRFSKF

For `O=C(O)c1ccc(-n2cc(-c3cccc(-c4cn(-c5ccc(C(=O)O)c(O)c5)nn4)n3)nn2)cc1O` [Compound 1, 4,4′-(pyridine-2,6-diylbis(1H-1,2,3-triazole-4,1-diyl))bis(2-hydroxybenzoic acid)], the “polymerization of XNTPs into Xpandomer copies of longer templates” value [1] was “generate complete Xpandomer copies of each longer template”, the “PEM activity: polymerization of XNTPs into Xpandomer copies of 100 mer templates” value (C4552 DNA polymerase) was “enables polymerization of XNTPs into full length Xpandomer copies of the three different 100 mer templates” and the “DNA polymerase-mediated primer extension with XNTPs (length of extension products)” value (DNA polymerase [2]) was “enables the polymerase to synthesize considerably longer extension products”. For the same molecule, the “accuracy of SBX sequence reads” value (DNA polymerase [3]; 45mer template, FIG. 6B, without additive reads not accurate past around base 18) was “increased the accuracy of the sequence reads across the entire length of the 45 mer template”, the “accuracy of SBX sequence reads” value (DNA polymerase [3]; 60 mer template, FIG. 7A) was “enabled accurate sequence reads completely to the end of each of these longer templates” and the “accuracy of SBX sequence reads” value (DNA polymerase [3]; 80 mer template, FIG. 7B) was “enabled accurate sequence reads completely to the end of each of these longer templates”.

In the case of `CCOC(=O)c1cc(-c2cn(-c3ccc(O)c(C(=O)O)c3)nn2)nc(-c2cn(-c3ccc(O)c(C(=O)O)c3)nn2)c1` [Compound 15, 5,5′-((4-(ethoxycarbonyl)pyridine-2,6-diyl)bis(1H-1,2,3-triazole-4,1-diyl))bis(2-hydroxybenzoic acid)], the “PEM activity: polymerization of XNTPs into Xpandomer copies of the 411 mer template” value ([4]; 2 or 3 mM PEM, 1 pmol template, 20 minutes at 37° C., FIG. 12) is reported as “enables polymerization of XNTPs into lengthy Xpandomer copies of the 411 mer template in a manner comparable to that of compound 14”.

In the case of `NC(=O)c1cc(-c2cn(-c3ccc(C(=O)O)c(O)c3)nn2)nc(-c2cn(-c3ccc(C(=O)O)c(O)c3)nn2)c1` [Compound 19, 4,4′-((4-carbamoylpyridine-2,6-diyl)bis(1H-1,2,3-triazole-4,1-diyl))bis(2-hydroxybenzoic acid)], the “PEM activity: polymerization of XNTPs into Xpandomer copies of the 411 mer template” value ([4]; 0.5, 1, or 1.5 mM PEM, 0.5 pmol template, 30 minutes at 37° C., FIG. 14) is reported as “enables polymerization of XNTPs into lengthy Xpandomer copies of the 411 mer template, albeit in a manner less efficient than that of compound 14”.
